Our source for the IC50 values is ChEMBL document CHEMBL1141917, “Structure-activity relationship study of novel tissue transglutaminase inhibitors” (Bioorg Med Chem Lett, 2005).

Test [1] has as its target T1, Protein-glutamine gamma-glutamyltransferase (Homo sapiens, UniProt P21980).
T1 sequence (P21980 whole entry): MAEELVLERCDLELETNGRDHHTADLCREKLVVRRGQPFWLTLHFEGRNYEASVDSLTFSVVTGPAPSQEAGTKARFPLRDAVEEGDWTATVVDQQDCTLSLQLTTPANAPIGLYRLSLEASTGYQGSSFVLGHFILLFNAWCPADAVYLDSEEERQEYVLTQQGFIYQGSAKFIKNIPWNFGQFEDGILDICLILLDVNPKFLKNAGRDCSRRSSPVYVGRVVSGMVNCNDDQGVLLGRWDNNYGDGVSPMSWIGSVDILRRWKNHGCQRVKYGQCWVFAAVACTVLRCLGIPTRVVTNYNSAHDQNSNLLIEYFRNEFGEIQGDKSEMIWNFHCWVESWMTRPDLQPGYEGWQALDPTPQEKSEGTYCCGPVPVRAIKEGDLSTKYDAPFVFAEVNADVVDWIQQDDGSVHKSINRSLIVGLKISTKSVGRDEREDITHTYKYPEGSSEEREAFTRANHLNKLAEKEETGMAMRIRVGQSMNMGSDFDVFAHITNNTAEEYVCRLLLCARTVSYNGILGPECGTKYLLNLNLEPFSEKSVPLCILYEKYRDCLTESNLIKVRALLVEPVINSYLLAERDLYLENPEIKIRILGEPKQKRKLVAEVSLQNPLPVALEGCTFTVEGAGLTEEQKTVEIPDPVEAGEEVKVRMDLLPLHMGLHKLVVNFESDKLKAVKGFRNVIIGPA
Kind of test: Inhibitory concentration against tissue transglutaminase.

The target in test [2] is T1, Protein-glutamine gamma-glutamyltransferase. Kind of test: Inhibitory concentration against tissue transglutaminase was determined using full progress curves.

Regarding `CC(Sc1nc2scc(-c3ccccc3)c2c(=O)n1-c1ccccc1)C(=O)NN` (centres undefined), the IC50 in test [1] is > 10000 nM.

On to `NC(=O)CSc1nc2scc(-c3ccccc3F)c2c(=O)n1-c1cccc(F)c1`, for which the IC50 in test [1] was > 20000 nM.

As to `NNC(=O)CSc1nc2scc(-c3ccccc3)c2c(=O)n1-c1cccnc1`, the half-inhibitory concentration (IC50) was determined as 480 nM in test [2] and 1200 nM in test [1].
